# Data as given in US11883389B2, “Formulations of 2-(4-chlorophenyl)-N-((2-(2,6- dioxopiperidin-3-yl)-1-oxoisoindolin-5-yl)methyl)-2,2-difluoroacetamide” (Celgene Corporation, priority 2016, dated 2024).
# Key:
# [1] = hygroscopicity / dynamic vapor sorption analysis; assay type: physicochemical; conditions: for water uptake (DVS): RH increased from about 0% to about 90% RH
# Method: In certain embodiments, Form A is characterized by dynamic vapor sorption analysis. […] In certain embodiments, Form A comprises less than 0.1% water as determined in a coulometric Karl Fischer (KF) titrator equipped with an oven sample processor set at 225° C.
# In certain embodiments, Form B is characterized by dynamic vapor sorption analysis. […] In certain embodiments, Form B comprises less than 0.1% water as determined in a coulometric Karl Fischer (KF) titrator equipped with an oven sample processor set at 225° C.
# In certain embodiments, Form C is characterized by dynamic vapor sorption analysis. […] In certain embodiments, Form C comprises less than 0.1% water as determined in a coulometric Karl Fischer (KF) titrator equipped with an oven sample processor set at 225° C.
# [2] = physchem; assay type: physicochemical; conditions: organic solvent or mixture
# Excerpt: Due to the poor water solubility of Compound 1, Form C, a cosolvent system was required to solubilize the drug compound in a solution prior to lyophilization. Several solubilizing agents and solvents that were considered in this example include hydroxypropyl-beta-cyclodextrin (HPβCD), Sulfobutylether-β-cyclodextrin sodium salt (SBEβCD; Captisol®), Tert-butyl alcohol (TBA), and dimethylacetamide (DMA).
# When the SBEβCD concentration increased from 30% to 40%, the enhancement in drug solubility was very limited.
# [3] = pH 5
# [4] = physchem; conditions: aqueous buffer
SMILES,water uptake (DVS) [1],solubility [2] [mg/mL],Hygroscopicity [1],Solution Stability [3],solubility [4] [mg/mL]
"O=C1CCC(N2Cc3cc(CNC(=O)C(F)(F)c4ccc(Cl)cc4)ccc3C2=O)C(=O)N1 (stereo not shown) [Form B, 2-(4-chlorophenyl)-N-((2-(2,6-dioxopiperidin-3-yl)-1-oxoisoindolin-5-yl)methyl)-2,2-difluoroacetamide]",about 1.4 % w/w,,,,
"O=C1CCC(N2Cc3cc(CNC(=O)C(F)(F)c4ccc(Cl)cc4)ccc3C2=O)C(=O)N1 (single isomer, unassigned) [Form C, 2-(4-Chlorophenyl)-N-((2-(2,6-dioxopiperidin-3-yl)-1-oxoisoindolin-5-yl)methyl)-2,2-difluoroacetamide]",about 0.6 % w/w,< 166,,,
"O=C1CCC(N2Cc3cc(CNC(=O)C(F)(F)c4ccc(Cl)cc4)ccc3C2=O)C(=O)N1 (stereo not shown) [Compound 1, 2-(4-chlorophenyl)-N-((2-(2,6-dioxopiperidin-3-yl)-1-oxoisoindolin-5-yl)methyl)-2,2-difluoroacetamide]",,,Not hygroscopic,DS is not stable in solution at pH of 5.0 or above.,≤ 0.001
"O=C1CCC(N2Cc3cc(CNC(=O)C(F)(F)c4ccc(Cl)cc4)ccc3C2=O)C(=O)N1 (single isomer, unassigned) [Form A, 2-(4-Chlorophenyl)-N-((2-(2,6-dioxopiperidin-3-yl)-1-oxoisoindolin-5-yl)methyl)-2,2-difluoroacetamide]",about 1.2 % w/w,,,,
